Values belong to the compound of their own block, whether it stands above or below them.
Tests used:
[1] = molecular target: Histone deacetylase (Homo sapiens) (UniProt Q13547+O15379+Q9UBN7+Q92769+Q9UQL6+Q8WUI4+Q9BY41+Q96DB2+P56524+Q9UKV0+Q969S8); settings: HeLa, 100 uM
[2] = molecular target: Histone deacetylase 2 (Homo sapiens) (UniProt Q92769); settings: HEK293; 50 uM
[3] = molecular target: Histone deacetylase 3 (Homo sapiens) (UniProt O15379); settings: HEK293; 50 uM
[4] = molecular target: Histone deacetylase 1 (Homo sapiens) (UniProt Q13547); settings: HEK293; 50 uM
[5] = molecular target: Histone deacetylase 4 (Homo sapiens) (UniProt P56524); settings: 50 uM
[6] = molecular target: T1, Histone deacetylase 7 (Homo sapiens) (UniProt Q8WUI4); settings: 100 uM
T1 sequence (whole entry): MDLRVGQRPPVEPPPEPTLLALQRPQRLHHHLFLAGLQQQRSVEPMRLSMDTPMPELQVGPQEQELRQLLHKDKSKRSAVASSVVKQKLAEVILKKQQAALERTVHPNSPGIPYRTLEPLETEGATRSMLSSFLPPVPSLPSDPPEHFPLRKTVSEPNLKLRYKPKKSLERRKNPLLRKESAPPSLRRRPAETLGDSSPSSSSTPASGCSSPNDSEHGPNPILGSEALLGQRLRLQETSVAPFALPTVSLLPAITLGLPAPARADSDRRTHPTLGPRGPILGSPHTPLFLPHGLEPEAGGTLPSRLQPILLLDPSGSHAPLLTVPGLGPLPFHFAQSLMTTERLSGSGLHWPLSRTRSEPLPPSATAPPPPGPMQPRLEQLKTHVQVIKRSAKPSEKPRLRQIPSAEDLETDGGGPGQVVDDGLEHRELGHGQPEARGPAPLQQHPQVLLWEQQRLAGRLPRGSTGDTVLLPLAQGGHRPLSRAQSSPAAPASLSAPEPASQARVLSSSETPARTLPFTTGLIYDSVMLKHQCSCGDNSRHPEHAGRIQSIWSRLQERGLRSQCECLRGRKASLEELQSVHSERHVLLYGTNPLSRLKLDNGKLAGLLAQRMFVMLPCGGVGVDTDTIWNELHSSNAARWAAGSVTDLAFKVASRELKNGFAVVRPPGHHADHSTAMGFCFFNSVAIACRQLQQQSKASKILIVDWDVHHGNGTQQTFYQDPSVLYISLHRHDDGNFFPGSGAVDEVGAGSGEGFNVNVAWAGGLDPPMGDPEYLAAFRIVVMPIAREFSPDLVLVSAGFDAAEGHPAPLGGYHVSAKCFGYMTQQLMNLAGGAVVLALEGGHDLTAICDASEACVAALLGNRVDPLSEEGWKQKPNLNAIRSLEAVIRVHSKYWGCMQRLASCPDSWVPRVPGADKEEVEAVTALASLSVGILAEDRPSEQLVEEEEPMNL

[7] = molecular target: Histone deacetylase 3 (Homo sapiens) (UniProt O15379); settings: HEK293; 100 uM
[8] = molecular target: Histone deacetylase 2 (Homo sapiens) (UniProt Q92769); settings: HEK293; 100 uM
[9] = molecular target: Histone deacetylase 4 (Homo sapiens) (UniProt P56524); settings: 100 uM

Histone deacetylase 2 (Homo sapiens), sequence (Q92769 whole entry): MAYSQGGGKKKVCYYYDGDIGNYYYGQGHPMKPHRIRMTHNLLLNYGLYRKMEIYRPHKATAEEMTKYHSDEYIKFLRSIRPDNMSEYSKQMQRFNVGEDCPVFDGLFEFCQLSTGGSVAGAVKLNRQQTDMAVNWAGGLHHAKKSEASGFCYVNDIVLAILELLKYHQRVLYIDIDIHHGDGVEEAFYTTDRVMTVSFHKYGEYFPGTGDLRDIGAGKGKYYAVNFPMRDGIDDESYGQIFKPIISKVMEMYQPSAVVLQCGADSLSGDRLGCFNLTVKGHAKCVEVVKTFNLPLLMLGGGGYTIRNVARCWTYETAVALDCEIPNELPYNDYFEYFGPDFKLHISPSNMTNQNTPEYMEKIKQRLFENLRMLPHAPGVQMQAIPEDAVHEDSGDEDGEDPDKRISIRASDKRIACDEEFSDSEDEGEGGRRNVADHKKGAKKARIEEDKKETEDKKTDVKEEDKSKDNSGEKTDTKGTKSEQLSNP
Histone deacetylase 3 (Homo sapiens), sequence (O15379 whole entry): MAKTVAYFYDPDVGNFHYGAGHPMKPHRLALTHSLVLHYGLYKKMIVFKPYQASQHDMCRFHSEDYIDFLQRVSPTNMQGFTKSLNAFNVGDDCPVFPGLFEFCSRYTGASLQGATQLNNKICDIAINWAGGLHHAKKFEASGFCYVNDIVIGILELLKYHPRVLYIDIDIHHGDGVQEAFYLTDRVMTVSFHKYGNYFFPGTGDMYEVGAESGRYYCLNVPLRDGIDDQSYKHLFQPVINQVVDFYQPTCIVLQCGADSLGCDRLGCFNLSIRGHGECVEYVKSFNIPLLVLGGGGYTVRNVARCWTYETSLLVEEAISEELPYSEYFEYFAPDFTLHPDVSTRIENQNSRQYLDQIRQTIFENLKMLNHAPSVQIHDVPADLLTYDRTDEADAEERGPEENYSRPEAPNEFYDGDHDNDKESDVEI
Histone deacetylase 4 (Homo sapiens), sequence (P56524 whole entry): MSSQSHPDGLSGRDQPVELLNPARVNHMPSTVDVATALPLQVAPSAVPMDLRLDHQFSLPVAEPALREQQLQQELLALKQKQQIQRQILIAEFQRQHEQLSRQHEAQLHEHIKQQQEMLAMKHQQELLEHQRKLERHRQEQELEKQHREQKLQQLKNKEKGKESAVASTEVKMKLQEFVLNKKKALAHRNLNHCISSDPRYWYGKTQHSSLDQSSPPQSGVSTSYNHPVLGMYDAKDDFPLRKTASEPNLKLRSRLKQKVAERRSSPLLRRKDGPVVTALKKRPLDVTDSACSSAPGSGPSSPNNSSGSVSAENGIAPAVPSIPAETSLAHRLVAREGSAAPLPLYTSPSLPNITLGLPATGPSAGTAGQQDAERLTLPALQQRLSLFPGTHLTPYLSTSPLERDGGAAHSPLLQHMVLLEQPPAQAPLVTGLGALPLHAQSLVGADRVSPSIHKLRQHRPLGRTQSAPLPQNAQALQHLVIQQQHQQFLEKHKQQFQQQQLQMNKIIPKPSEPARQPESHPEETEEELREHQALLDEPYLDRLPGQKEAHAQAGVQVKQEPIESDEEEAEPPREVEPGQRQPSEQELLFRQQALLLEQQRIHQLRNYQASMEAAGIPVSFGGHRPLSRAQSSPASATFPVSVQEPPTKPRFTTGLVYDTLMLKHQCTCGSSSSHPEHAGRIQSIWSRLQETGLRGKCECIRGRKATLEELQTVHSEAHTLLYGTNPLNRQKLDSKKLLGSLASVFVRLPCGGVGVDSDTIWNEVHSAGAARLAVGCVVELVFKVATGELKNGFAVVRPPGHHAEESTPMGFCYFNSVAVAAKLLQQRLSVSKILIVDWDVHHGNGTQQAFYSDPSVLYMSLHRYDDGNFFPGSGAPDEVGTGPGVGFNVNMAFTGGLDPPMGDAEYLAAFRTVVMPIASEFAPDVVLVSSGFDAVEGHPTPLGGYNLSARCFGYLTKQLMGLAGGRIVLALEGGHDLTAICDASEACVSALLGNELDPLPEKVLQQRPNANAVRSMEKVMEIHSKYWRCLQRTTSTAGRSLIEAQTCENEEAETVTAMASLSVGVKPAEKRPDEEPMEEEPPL
Histone deacetylase 1 (Homo sapiens), sequence (Q13547 whole entry): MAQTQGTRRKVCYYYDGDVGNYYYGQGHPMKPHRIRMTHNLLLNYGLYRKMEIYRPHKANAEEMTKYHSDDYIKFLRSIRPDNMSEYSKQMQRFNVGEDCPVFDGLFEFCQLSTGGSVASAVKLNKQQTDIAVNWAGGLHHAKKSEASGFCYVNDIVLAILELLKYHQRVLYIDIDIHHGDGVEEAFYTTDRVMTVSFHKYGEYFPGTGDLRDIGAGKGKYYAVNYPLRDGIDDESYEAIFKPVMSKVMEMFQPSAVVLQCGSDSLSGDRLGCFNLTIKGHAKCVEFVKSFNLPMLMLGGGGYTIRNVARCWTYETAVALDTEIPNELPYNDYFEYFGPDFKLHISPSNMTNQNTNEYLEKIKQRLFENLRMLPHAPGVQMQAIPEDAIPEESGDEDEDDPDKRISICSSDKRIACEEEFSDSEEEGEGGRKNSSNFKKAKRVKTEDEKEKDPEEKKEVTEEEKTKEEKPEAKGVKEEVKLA

SMILES: O=C(CCCCC[C@@H]1NC(=O)[C@H](Cc2c[nH]c3ccccc23)NC(=O)[C@H]2CCCN2C(=O)[C@H](Cc2c[nH]c3ccccc23)NC1=O)NO
inhibition [6]: 48.5% | inhibition [7]: 23.5% | inhibition [8]: 34%

SMILES: C[C@H](O)C(=O)CCCCC[C@@H]1NC(=O)[C@H]2CCCN2C(=O)[C@H](Cc2ccccc2)NC(=O)[C@H](Cc2c[nH]c3ccccc23)NC1=O
inhibition [9]: 50%

Further lines, results first:

inhibition [1]: 30%
SMILES: O=C(O)CC/C=C\C[C@@H]1NC(=O)[C@H](Cc2c[nH]c3ccccc23)NC(=O)[C@H]2CCCN2C(=O)[C@H](Cc2c[nH]c3ccccc23)NC1=O

inhibition [2]: 30% | inhibition [3]: 14.7% | inhibition [4]: 42%
SMILES: O=C(CCCCC[C@@H]1NC(=O)[C@H]2CCCN2C(=O)[C@H](Cc2ccccc2)NC(=O)[C@H](Cc2c[nH]c3ccccc23)NC1=O)NO

inhibition [5]: 37%
SMILES: O=C(O)CC/C=C\C[C@@H]1NC(=O)[C@H]2CCCN2C(=O)[C@H](Cc2ccccc2)NC(=O)[C@H](Cc2c[nH]c3ccccc23)NC1=O
